Tests used:
U937 (N-Ras WT) = test: Proliferation inhibitory activity, U937; type: cell-based; conditions: Homo sapiens, U-937; U937 (N-Ras WT) cell line; read-out: Proliferation inhibitory efficacy (GI50, μM) U937 (N-Ras WT)
Experimental: GI50 values were calculated by measuring the proliferation inhibitory efficacy of the compounds of the present invention on mt-NRAS (G12D) Ba/F3, U937 (wt-NRAS) and OCI-AML3 (mt-NRAS) cell lines.

ABL1 = ABL1 (Homo sapiens, UniProt P00519); test: Kinase panel biochemical assay; conditions: 1 μM single concentration, read-out: % residual enzyme activity
Experimental: (§1) In order to measure the protein kinase inhibitory activity (% inhibition) of the compounds of the present invention, biochemical assays were performed on the full kinase panel listed in the following Table 1.
(§2) As an test compound, 1-(3-(7-((6-(4-ethylpiperazine-1-carbonyl)pyridin-3-yl)amino)-1-methyl-2-oxo-1,4-dihydropyrimido[4,5-d]pyrimidin-3(2H)-yl)-4-methylphenyl)-3-(2-methoxyphenyl)urea (Compound No. 14) was used. The kinase inhibitory efficacy was measured upon treatment with a 1 μM single concentration of the test compound to calculate % residual enzyme activity value.
(§3) ABL1, FGFR2, TAOK2/TAO1, EPHA5, EPHB2, EPHB3, RET, LYN B, EPHA2, FRK/PTK5, EPHA8, LCK, EPHB4, FYN, KHS/MAP4K5, DDR1, EPHA3, P38a/MAPK14, EPHA4, FMS, EPHB1, HCK, FGFR1, ABL2/ARG, EPHA6, c-Src, ACK1, FLT4NEGFR3, ERBB4/HER4, DDR2, KDRNEGFR2, LYN, ZAK/MLTK, YES/YES1, BLK, FGR, MLCK2/MYLK2, TAOK1, BMX/ETK, BTK, EPHA1, JAK1, P38b/MAPK11, TIE2/TEK, FLT1NEGFR1, TXK, SRMS, RAF1, SIK1, MLK3/MAP3K11, PEAK1, TRKA, EPHA7, GLK/MAP4K3, MLK2/MAP3K10, TEC, CSK, TRKC, FES/FPS, SIK2, FGFR3, BRK, YSK4/MAP3K19, ARAF, PDGFRb, TNK1, GCK/MAP4K2, PDGFRa, TNIK, TAK1, ERBB2/HER2, LIMK1, HIPK4, FER, EGFR, JAK2, HPK1/MAP4K1, TRKB, RIPK3, LOK/STK10, LIMK2, MLK1/MAP3K9, BRAF, MEKK3, MEK5, STK32B/YANK2, FGFR4, MEKK2, SLK/STK2, FLT3, PKAcg, TAOK3/JIK, TYRO3/SKY, SIK3, IR, LRRK2, PYK2, NEK11, p70S6K/RPS6KB1, LATS2.

ABL2/ARG = ABL2/ARG (Homo sapiens, UniProt P42684); test: Kinase panel biochemical assay; conditions: 1 μM single concentration, read-out: % residual enzyme activity
Experimental: as §1, §2, §3

BRAF = BRAF (Homo sapiens, UniProt P15056); test: Kinase panel biochemical assay; conditions: 1 μM single concentration, read-out: % residual enzyme activity
Experimental: as §1, §2, §3

EGFR = EGFR (Homo sapiens, UniProt P00533); test: Kinase panel biochemical assay; conditions: 1 μM single concentration, read-out: % residual enzyme activity
Experimental: as §1, §2, §3

EPHA2 = EPHA2 (Homo sapiens, UniProt P29317); test: Kinase panel biochemical assay; conditions: 1 μM single concentration, read-out: % residual enzyme activity
Experimental: as §1, §2, §3

EPHA3 = EPHA3 (Homo sapiens, UniProt P29320); test: Kinase panel biochemical assay; conditions: 1 μM single concentration, read-out: % residual enzyme activity
EPHA3, sequence (P29320 21-983): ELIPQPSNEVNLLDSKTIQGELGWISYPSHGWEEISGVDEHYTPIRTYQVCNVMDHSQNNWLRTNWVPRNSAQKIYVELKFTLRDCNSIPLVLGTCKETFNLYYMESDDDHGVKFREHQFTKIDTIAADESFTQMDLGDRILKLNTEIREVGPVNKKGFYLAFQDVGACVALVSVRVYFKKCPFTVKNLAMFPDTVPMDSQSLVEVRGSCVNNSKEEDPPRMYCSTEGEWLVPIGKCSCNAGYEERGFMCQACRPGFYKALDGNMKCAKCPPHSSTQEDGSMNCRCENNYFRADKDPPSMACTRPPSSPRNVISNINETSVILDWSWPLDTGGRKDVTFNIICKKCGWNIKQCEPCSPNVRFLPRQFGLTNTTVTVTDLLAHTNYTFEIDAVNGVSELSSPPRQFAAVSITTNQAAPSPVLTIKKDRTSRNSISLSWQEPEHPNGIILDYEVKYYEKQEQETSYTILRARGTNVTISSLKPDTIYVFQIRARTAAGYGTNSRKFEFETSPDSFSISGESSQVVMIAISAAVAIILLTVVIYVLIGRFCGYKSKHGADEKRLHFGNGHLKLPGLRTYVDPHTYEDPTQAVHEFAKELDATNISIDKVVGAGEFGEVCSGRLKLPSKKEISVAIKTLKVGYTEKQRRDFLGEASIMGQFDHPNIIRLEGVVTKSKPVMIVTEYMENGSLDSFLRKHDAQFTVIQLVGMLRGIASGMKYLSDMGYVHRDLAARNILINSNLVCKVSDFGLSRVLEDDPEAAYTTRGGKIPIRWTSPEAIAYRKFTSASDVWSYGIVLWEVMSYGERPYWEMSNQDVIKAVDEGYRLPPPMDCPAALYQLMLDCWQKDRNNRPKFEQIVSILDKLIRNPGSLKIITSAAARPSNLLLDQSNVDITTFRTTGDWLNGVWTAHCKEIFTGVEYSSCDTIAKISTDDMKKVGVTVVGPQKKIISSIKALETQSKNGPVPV
Experimental: as §1, §2, §3

EPHA6 = EPHA6 (Homo sapiens, UniProt Q9UF33); test: Kinase panel biochemical assay; conditions: 1 μM single concentration, read-out: % residual enzyme activity
Experimental: as §1, §2, §3

EPHB1 = EPHB1 (Homo sapiens, UniProt P54762); test: Kinase panel biochemical assay; conditions: 1 μM single concentration, read-out: % residual enzyme activity
Experimental: as §1, §2, §3

EPHB2 = EPHB2 (Homo sapiens, UniProt P29323); test: Kinase panel biochemical assay; conditions: 1 μM single concentration, read-out: % residual enzyme activity
Experimental: as §1, §2, §3

ERBB2/HER2 = ERBB2/HER2 (Homo sapiens, UniProt P04626); test: Kinase panel biochemical assay; conditions: 1 μM single concentration, read-out: % residual enzyme activity
Experimental: as §1, §2, §3

FGFR3 = FGFR3 (Homo sapiens, UniProt P22607); test: Kinase panel biochemical assay; conditions: 1 μM single concentration, read-out: % residual enzyme activity
Experimental: as §1, §2, §3

FLT3 = FLT3 (Homo sapiens, UniProt P36888); test: Kinase panel biochemical assay; conditions: 1 μM single concentration, read-out: % residual enzyme activity
Experimental: as §1, §2, §3

FMS = FMS (Homo sapiens, UniProt P07333); test: Kinase panel biochemical assay; conditions: 1 μM single concentration, read-out: % residual enzyme activity
FMS, sequence (P07333 20-972): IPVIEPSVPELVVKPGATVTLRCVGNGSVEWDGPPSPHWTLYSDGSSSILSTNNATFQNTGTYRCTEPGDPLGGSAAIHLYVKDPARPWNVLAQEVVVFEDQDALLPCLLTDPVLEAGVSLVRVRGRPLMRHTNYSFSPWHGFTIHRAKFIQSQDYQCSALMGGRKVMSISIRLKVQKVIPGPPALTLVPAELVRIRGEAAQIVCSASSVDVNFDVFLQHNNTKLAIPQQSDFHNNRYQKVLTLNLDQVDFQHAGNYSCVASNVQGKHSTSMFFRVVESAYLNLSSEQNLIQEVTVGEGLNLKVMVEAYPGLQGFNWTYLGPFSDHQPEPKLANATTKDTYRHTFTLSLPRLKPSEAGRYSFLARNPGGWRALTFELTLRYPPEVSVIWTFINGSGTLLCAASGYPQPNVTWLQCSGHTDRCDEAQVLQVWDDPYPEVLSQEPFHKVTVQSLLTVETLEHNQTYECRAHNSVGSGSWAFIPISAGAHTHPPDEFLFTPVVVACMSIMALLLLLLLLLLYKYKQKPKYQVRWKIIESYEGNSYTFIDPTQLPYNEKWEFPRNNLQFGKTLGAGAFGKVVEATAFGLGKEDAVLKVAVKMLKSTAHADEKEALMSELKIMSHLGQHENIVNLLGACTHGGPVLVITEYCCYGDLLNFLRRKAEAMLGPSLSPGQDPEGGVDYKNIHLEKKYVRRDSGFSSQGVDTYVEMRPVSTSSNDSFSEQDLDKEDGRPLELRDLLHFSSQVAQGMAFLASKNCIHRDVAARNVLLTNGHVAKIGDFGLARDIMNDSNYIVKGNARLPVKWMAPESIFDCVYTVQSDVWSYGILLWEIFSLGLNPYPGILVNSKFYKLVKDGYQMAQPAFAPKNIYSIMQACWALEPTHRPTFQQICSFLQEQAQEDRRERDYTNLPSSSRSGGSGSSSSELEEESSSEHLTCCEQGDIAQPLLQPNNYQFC
Experimental: as §1, §2, §3

GLK/MAP4K3 = GLK/MAP4K3 (Homo sapiens, UniProt Q8IVH8); test: Kinase panel biochemical assay; conditions: 1 μM single concentration, read-out: % residual enzyme activity
Experimental: as §1, §2, §3

HPK1/MAP4K1 = HPK1/MAP4K1 (Homo sapiens, UniProt Q92918); test: Kinase panel biochemical assay; conditions: 1 μM single concentration, read-out: % residual enzyme activity
HPK1/MAP4K1, sequence (Q92918 whole entry): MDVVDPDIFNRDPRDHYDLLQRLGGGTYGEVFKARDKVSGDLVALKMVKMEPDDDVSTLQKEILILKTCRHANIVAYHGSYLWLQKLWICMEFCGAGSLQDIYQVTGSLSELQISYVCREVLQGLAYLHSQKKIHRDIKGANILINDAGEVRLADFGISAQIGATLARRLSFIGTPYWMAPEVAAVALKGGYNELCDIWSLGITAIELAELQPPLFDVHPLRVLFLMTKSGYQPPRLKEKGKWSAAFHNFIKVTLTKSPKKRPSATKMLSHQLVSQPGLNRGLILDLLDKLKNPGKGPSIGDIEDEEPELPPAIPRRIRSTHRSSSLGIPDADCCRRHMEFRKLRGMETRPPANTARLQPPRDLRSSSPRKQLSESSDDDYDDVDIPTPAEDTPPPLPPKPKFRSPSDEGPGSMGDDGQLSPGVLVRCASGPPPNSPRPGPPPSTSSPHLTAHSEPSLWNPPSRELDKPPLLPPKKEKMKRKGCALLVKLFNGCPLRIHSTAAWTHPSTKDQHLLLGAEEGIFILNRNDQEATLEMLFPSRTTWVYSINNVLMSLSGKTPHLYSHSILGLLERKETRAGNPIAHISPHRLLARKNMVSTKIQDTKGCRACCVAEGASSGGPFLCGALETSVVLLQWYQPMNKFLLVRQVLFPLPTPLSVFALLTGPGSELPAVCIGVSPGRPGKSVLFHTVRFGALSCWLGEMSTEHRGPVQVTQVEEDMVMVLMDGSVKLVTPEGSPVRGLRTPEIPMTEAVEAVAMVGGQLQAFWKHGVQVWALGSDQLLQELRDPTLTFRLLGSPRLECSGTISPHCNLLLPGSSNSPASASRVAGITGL
Experimental: as §1, §2, §3

MLCK2/MYLK2 = MLCK2/MYLK2 (Homo sapiens, UniProt Q9H1R3); test: Kinase panel biochemical assay; conditions: 1 μM single concentration, read-out: % residual enzyme activity
Experimental: as §1, §2, §3

MLK2/MAP3K10 = MLK2/MAP3K10 (Homo sapiens, UniProt Q02779); test: Kinase panel biochemical assay; conditions: 1 μM single concentration, read-out: % residual enzyme activity
Experimental: as §1, §2, §3

P38b/MAPK11 = P38b/MAPK11 (Homo sapiens, UniProt Q15759); test: Kinase panel biochemical assay; conditions: 1 μM single concentration, read-out: % residual enzyme activity
P38b/MAPK11, sequence (Q15759 whole entry): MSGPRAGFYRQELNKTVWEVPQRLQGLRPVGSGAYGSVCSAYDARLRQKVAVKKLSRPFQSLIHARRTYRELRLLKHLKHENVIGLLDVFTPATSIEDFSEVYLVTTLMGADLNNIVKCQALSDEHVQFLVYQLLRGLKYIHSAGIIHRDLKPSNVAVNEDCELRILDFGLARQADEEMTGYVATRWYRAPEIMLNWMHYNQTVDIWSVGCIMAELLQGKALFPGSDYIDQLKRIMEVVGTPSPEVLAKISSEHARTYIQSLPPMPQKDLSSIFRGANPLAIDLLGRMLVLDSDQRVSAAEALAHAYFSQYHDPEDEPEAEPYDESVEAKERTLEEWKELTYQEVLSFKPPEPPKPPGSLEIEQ
Experimental: as §1, §2, §3

PDGFRa = PDGFRa (Homo sapiens, UniProt P16234); test: Kinase panel biochemical assay; conditions: 1 μM single concentration, read-out: % residual enzyme activity
Experimental: as §1, §2, §3

PEAK1 = PEAK1 (Homo sapiens, UniProt Q9H792); test: Kinase panel biochemical assay; conditions: 1 μM single concentration, read-out: % residual enzyme activity
PEAK1, sequence (Q9H792 whole entry): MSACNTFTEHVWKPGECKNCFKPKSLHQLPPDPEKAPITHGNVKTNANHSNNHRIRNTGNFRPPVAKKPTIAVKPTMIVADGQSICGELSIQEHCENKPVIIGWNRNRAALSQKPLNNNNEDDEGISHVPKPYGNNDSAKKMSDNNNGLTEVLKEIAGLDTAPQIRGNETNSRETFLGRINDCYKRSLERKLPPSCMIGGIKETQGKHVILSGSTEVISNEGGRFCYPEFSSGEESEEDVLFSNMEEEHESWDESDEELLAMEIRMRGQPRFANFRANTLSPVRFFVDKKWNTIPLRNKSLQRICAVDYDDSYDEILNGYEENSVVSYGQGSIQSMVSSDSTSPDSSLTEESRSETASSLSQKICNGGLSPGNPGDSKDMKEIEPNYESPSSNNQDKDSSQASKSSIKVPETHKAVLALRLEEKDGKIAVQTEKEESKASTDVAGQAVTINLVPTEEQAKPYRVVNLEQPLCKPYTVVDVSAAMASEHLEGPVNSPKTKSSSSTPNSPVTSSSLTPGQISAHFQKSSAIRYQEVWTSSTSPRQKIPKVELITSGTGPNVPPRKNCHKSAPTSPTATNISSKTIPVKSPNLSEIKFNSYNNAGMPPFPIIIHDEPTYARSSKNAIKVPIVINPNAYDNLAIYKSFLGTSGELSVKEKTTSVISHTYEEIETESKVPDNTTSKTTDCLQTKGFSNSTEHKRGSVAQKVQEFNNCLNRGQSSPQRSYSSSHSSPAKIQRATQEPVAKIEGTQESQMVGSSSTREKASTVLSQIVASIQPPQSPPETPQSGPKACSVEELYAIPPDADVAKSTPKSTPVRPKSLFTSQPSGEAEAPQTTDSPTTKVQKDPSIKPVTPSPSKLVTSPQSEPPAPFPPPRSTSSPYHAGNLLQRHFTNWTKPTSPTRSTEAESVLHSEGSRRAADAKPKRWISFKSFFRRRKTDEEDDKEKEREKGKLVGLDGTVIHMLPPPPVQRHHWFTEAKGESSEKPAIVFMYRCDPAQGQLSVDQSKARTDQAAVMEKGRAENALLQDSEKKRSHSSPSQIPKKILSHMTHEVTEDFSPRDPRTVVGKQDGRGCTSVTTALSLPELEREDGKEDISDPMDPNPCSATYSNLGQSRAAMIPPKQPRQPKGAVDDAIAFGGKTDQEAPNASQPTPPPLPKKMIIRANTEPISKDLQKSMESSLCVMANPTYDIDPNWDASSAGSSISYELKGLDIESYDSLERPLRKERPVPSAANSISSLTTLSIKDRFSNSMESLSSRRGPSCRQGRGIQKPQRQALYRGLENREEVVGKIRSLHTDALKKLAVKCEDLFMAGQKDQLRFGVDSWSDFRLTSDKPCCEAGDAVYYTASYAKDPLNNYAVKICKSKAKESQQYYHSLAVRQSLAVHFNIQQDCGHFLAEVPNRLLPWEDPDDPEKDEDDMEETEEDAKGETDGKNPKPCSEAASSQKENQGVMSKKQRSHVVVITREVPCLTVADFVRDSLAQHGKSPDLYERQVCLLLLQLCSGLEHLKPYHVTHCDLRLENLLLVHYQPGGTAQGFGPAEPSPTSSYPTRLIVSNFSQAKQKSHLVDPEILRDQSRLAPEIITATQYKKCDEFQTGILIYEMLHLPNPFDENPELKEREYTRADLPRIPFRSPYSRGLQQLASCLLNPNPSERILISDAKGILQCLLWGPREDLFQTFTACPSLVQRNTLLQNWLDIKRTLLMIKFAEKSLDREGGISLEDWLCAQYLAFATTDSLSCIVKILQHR
Experimental: as §1, §2, §3

RET = RET (Homo sapiens, UniProt P07949); test: Kinase panel biochemical assay; conditions: 1 μM single concentration, read-out: % residual enzyme activity
Experimental: as §1, §2, §3

SIK1 = SIK1 (Homo sapiens, UniProt P57059); test: Kinase panel biochemical assay; conditions: 1 μM single concentration, read-out: % residual enzyme activity
Experimental: as §1, §2, §3

SRMS = SRMS (Homo sapiens, UniProt Q9H3Y6); test: Kinase panel biochemical assay; conditions: 1 μM single concentration, read-out: % residual enzyme activity
Experimental: as §1, §2, §3

STK32B/YANK2 = STK32B/YANK2 (Homo sapiens, UniProt Q9NY57); test: Kinase panel biochemical assay; conditions: 1 μM single concentration, read-out: % residual enzyme activity
Experimental: as §1, §2, §3

TAK1 = TAK1 (Homo sapiens, UniProt O43318); test: Kinase panel biochemical assay; conditions: 1 μM single concentration, read-out: % residual enzyme activity
Experimental: as §1, §2, §3

TAOK3/JIK = TAOK3/JIK (Homo sapiens, UniProt Q9H2K8); test: Kinase panel biochemical assay; conditions: 1 μM single concentration, read-out: % residual enzyme activity
Experimental: as §1, §2, §3

p70S6K/RPS6KB1 = p70S6K/RPS6KB1 (Homo sapiens, UniProt P23443); test: Kinase panel biochemical assay; conditions: 1 μM single concentration, read-out: % residual enzyme activity
Experimental: as §1, §2, §3

**Q.** How did the GI50 (U937 (N-Ras WT)) turn out when `CCN1CCN(C(=O)c2ccc(Nc3ncc4c(n3)N(C)C(=O)N(c3cc(NC(=O)Nc5ccccc5OC)ccc3C)C4)cn2)CC1` [Compound No. 14, 1-(3-(7-((6-(4-ethylpiperazin-1-carbonyl)pyridin-3-yl)amino)-1-methyl-2-oxo-1,4-dihydropyrimido[4,5-d]pyrimidin-3(2H)-yl)-4-methylphenyl)-3-(2-methoxyphenyl)urea] was run?
**A.** ≥ 5 µM

**Q.** And the remaining activity at 1 µM (ABL1)?
**A.** ≤ 30%

**Q.** What about the remaining activity at 1 µM (ABL2/ARG) of the same molecule?
**A.** ≤ 30%

**Q.** And the remaining activity at 1 µM (BRAF)?
**A.** ≤ 30%

**Q.** What about the remaining activity at 1 µM (EGFR) of the same molecule?
**A.** ≤ 30%

**Q.** What about the remaining activity at 1 µM (EPHA2) of the same molecule?
**A.** ≤ 30%

**Q.** What about the remaining activity at 1 µM (EPHA3) of the same molecule?
**A.** ≤ 30%

**Q.** And the remaining activity at 1 µM (EPHA6)?
**A.** ≤ 30%

**Q.** What about the remaining activity at 1 µM (EPHB1) of the same molecule?
**A.** ≤ 30%

**Q.** What about the remaining activity at 1 µM (EPHB2) of the same molecule?
**A.** ≤ 30%

**Q.** What about the remaining activity at 1 µM (ERBB2/HER2) of the same molecule?
**A.** ≤ 30%

**Q.** What about the remaining activity at 1 µM (FGFR3) of the same molecule?
**A.** ≤ 30%

**Q.** What about the remaining activity at 1 µM (FLT3) of the same molecule?
**A.** ≤ 30%

**Q.** What about the remaining activity at 1 µM (FMS) of the same molecule?
**A.** ≤ 30%

**Q.** What about the remaining activity at 1 µM (GLK/MAP4K3) of the same molecule?
**A.** ≤ 30%

**Q.** What about the remaining activity at 1 µM (HPK1/MAP4K1) of the same molecule?
**A.** ≤ 30%

**Q.** And the remaining activity at 1 µM (MLCK2/MYLK2)?
**A.** ≤ 30%

**Q.** And the remaining activity at 1 µM (MLK2/MAP3K10)?
**A.** ≤ 30%

**Q.** And the remaining activity at 1 µM (P38b/MAPK11)?
**A.** ≤ 30%

**Q.** And the remaining activity at 1 µM (PDGFRa)?
**A.** ≤ 30%

**Q.** What about the remaining activity at 1 µM (PEAK1) of the same molecule?
**A.** ≤ 30%

**Q.** What about the remaining activity at 1 µM (RET) of the same molecule?
**A.** ≤ 30%

**Q.** And the remaining activity at 1 µM (SIK1)?
**A.** ≤ 30%

**Q.** What about the remaining activity at 1 µM (SRMS) of the same molecule?
**A.** ≤ 30%

**Q.** What about the remaining activity at 1 µM (STK32B/YANK2) of the same molecule?
**A.** ≤ 30%

**Q.** What about the remaining activity at 1 µM (TAK1) of the same molecule?
**A.** ≤ 30%

**Q.** What about the remaining activity at 1 µM (TAOK3/JIK) of the same molecule?
**A.** ≤ 30%

**Q.** And the remaining activity at 1 µM (p70S6K/RPS6KB1)?
**A.** ≤ 30%

From US10059717B2, “Urea compounds containing 3,4-dihydropyrimido[4,5-D]pyrimidin-2(1H)-one skeleton as protein kinase inhibitors” (KOREA INSTITUTE OF SCIENCE AND TECHNOLOGY, priority 2016, dated 2018)
